Drawing on patent publication US12258327B2, “5-membered heteroaryl-containing aminopyridine compounds as EGFR inhibitors” (YUHAN CORPORATION, priority 2021, dated 2025), this text covers IC50 for eleven compounds.

Assay [1] addresses EGFR del19/T790M/C797S (Homo sapiens, UniProt P00533, C797S/DEL746-750/T790M). Description: Biochemical EGFR kinase assay (Lance Ultra TR-FRET), triple mutant del19/T790M/C797S. Put shortly: (§1)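 Kinase activity is measured by TR-FRET phosphopeptide detection. Compounds span 0.003 μM to 10 μM; the 1 h reaction at room temperature is quenched with EDTA, then labelled antibody (2 nM) is incubated 60 min before reading.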
In general terms: In TR-FRET formats the signal depends on donor and acceptor labels being close together.

The target of assay [2] is EGFR L858R/T790M/C797S (Homo sapiens, UniProt P00533, C797S/L858R/T790M). Description: Biochemical EGFR kinase assay (Lance Ultra TR-FRET), triple mutant L858R/T790M/C797S. Summed up:
as §1

Assay [3] concerns the target EGFR del19/C797S (Homo sapiens, UniProt P00533, C797S/DEL746-750). In words: Biochemical EGFR kinase assay (Lance Ultra TR-FRET), double mutant del19/C797S. Summed up:
as §1

The target of assay [4] is EGFR L858R/C797S (Homo sapiens, UniProt P00533, C797S/L858R). Description: Biochemical EGFR kinase assay (Lance Ultra TR-FRET), double mutant L858R/C797S. Put shortly: as §1
Assay [5] addresses EGFR wildtype (WT) (Homo sapiens, UniProt P00533). Description: Biochemical EGFR kinase assay (Lance Ultra TR-FRET), wildtype. Put shortly: as §1
The mark [6] stands for this setting: IC50 del19/T790M/C797S, 100 μM ATP.
[7] abbreviates: Km ATP, read-out: IC50 del19/T790M/C797S, Km ATP.
The mark [8] stands for this setting: IC50 L858R/T790M/C797S, 100 μM ATP.
The mark [9] stands for this setting: Km ATP, read-out: IC50 L858R/T790M/C797S, Km ATP.
[10] abbreviates: Km ATP, read-out: IC50 del19/C797S, Km ATP.
Where [11] appears, read: Km ATP, read-out: IC50 L858R/C797S, Km ATP.
[12] abbreviates: Km ATP, read-out: IC50 WT, Km ATP.
Setting [13] is: Km ATP, read-out: IC50 del19/T790M/C797S (nM) Km ATP.
[14] abbreviates: Km ATP, read-out: IC50 L858R/T790M/C797S (nM) Km ATP.
[15] abbreviates: Km ATP, read-out: IC50 del19/C797S (nM) Km ATP.
[16] abbreviates: Km ATP, read-out: IC50 L858R/C797S (nM) Km ATP.
Setting [17] is: Km ATP, read-out: IC50 WT (nM) Km ATP.
The mark [18] stands for this setting: IC50 del19/T790M/C797S (nM) 100 μM ATP, 100 μM ATP.
[19] abbreviates: IC50 L858R/T790M/C797S (nM) 100 μM ATP, 100 μM ATP.
The mark [20] stands for this setting: IC50 del19/C797S (nM) 100 μM ATP, 100 μM ATP.
Setting [21] is: IC50 L858R/C797S (nM) 100 μM ATP, 100 μM ATP.
Setting [22] is: IC50 WT (nM) 100 μM ATP, 100 μM ATP.

The structures appear in SMILES notation. pIC50: −log10 of the molar value. Where two headings read alike, the source gives them in different places. Where only a bound is given, the exact number is not on record here.

Chain of EGFR del19/T790M/C797S (P00533 with tags, fused parts or gaps DEL746-750/T790M/C797S): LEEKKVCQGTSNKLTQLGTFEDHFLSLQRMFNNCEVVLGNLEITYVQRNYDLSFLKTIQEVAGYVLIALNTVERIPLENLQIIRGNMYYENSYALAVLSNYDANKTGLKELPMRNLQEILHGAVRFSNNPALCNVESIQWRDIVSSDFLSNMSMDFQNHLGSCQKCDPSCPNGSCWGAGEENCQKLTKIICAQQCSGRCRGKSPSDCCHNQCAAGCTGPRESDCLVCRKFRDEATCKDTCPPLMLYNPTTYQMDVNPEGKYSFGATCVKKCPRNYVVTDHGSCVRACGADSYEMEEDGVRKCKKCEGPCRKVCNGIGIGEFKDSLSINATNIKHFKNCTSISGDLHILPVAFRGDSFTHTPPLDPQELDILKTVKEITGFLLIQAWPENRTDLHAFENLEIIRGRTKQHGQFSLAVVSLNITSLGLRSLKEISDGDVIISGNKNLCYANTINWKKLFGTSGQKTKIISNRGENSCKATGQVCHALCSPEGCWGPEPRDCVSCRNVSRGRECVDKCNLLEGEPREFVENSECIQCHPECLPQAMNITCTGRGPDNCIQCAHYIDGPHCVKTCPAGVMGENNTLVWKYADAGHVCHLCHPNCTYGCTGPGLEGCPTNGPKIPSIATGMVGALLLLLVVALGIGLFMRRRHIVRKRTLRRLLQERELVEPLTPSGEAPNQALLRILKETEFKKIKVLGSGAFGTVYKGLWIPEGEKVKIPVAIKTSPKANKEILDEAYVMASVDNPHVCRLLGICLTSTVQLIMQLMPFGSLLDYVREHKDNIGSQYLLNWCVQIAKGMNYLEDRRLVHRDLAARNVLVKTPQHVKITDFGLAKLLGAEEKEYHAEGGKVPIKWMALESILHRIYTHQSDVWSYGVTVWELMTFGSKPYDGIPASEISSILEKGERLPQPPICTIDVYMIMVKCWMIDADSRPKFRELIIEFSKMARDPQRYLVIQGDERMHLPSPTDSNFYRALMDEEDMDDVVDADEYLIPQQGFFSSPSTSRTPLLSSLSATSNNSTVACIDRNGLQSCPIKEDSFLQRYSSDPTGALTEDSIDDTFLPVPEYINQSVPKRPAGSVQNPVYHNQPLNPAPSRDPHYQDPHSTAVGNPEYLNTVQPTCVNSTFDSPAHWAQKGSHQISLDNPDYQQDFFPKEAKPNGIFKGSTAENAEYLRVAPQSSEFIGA
Chain of EGFR del19/C797S (P00533 with tags, fused parts or gaps DEL746-750/C797S): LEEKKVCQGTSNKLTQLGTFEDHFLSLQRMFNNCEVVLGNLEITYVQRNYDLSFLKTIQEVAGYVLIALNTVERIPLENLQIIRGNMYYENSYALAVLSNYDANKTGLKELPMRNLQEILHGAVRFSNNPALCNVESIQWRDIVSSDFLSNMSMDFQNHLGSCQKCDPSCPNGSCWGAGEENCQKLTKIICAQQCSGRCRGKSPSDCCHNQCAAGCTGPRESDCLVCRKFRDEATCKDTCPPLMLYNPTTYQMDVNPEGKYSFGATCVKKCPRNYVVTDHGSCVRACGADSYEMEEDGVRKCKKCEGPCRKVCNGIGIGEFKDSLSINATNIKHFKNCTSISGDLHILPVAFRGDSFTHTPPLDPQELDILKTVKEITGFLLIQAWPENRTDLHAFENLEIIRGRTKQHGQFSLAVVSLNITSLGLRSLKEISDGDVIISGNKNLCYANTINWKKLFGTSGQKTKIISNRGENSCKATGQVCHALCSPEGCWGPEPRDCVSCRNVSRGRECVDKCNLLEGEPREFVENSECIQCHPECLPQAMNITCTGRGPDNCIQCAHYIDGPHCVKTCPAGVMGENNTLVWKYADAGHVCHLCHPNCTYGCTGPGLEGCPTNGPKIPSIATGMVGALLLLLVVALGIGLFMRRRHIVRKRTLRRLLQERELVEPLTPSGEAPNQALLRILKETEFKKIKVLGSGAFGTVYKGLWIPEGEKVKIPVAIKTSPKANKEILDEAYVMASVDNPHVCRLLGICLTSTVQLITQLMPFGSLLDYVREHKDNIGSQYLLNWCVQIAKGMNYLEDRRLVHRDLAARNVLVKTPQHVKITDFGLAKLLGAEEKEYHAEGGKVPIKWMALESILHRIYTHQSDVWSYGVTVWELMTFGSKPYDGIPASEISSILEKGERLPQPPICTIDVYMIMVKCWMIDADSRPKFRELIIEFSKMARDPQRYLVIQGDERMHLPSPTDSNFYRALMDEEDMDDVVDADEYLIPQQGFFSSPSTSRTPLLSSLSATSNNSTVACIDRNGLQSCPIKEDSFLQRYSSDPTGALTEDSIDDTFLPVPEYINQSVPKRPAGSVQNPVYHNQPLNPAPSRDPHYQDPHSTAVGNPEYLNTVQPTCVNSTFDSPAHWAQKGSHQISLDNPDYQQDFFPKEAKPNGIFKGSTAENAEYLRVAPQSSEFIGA
Chain of EGFR L858R/T790M/C797S (P00533 25-1210 T790M/C797S/L858R): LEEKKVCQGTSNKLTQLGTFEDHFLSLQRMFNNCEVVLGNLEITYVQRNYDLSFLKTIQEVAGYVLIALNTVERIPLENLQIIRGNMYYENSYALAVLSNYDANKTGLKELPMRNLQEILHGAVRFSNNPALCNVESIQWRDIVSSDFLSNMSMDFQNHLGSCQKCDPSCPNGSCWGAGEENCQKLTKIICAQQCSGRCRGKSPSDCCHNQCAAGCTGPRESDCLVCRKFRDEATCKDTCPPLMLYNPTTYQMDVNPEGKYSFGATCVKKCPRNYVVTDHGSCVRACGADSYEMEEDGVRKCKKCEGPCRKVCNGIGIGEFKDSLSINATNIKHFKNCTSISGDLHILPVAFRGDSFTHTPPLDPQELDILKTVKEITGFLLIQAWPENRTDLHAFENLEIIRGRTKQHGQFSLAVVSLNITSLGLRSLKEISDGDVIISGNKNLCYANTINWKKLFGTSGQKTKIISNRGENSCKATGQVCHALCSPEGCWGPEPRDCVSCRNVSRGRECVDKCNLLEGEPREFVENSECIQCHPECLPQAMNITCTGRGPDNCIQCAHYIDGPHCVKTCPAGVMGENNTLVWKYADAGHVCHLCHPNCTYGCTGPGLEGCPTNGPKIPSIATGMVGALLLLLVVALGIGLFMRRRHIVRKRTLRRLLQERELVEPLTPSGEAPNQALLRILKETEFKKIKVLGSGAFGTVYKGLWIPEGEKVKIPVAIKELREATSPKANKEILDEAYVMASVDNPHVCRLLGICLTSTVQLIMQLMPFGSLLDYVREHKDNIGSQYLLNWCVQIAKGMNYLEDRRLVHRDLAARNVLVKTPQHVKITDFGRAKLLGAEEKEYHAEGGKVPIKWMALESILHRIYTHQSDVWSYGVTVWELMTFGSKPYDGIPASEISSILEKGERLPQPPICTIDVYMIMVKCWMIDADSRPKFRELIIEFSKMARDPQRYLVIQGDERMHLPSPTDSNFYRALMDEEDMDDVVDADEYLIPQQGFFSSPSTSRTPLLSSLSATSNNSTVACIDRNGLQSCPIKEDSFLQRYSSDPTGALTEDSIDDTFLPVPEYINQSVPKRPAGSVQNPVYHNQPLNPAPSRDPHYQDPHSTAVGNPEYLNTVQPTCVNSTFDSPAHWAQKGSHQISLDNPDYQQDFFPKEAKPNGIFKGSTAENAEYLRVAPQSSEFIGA
Chain of EGFR L858R/C797S (P00533 25-1210 C797S/L858R): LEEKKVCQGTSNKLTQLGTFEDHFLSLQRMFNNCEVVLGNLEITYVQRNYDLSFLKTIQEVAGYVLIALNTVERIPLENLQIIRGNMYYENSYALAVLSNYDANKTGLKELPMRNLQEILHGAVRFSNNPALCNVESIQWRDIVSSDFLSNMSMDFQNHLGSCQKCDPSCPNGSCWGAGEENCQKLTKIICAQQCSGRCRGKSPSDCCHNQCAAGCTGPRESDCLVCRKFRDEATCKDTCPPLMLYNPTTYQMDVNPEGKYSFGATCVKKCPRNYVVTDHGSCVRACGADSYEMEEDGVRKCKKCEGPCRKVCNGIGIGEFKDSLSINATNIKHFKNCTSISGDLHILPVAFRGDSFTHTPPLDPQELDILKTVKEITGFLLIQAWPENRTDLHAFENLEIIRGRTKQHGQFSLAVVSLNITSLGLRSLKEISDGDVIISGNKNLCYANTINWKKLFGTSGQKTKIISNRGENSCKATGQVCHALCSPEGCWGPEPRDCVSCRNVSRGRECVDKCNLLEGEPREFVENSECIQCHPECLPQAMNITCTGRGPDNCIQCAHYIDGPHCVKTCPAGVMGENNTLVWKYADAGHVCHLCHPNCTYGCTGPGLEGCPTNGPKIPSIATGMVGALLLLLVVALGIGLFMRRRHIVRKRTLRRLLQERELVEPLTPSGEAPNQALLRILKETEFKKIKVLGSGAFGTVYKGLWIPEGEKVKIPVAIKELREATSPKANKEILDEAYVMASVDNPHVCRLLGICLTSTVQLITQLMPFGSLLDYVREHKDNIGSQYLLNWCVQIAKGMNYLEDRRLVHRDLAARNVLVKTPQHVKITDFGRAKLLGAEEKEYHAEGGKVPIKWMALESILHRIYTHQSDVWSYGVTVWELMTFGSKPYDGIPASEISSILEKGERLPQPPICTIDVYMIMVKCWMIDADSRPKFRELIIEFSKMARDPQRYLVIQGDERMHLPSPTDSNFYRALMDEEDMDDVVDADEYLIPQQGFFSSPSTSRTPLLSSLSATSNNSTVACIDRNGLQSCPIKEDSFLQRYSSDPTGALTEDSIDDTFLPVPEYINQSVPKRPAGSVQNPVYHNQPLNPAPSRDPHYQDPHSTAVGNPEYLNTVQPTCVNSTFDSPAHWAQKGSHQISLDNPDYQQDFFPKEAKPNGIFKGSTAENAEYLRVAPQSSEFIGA

Consider `Cn1nc(-c2cnc(Nc3ccnc(N4CCC(O)C(F)(F)C4)n3)cc2NC2CCC(C)(O)CC2)cc1C(F)(F)F` (stereo not shown) [Example 353, 3,3-Difluoro-1-(4-((4-(((1s,4s)-4-hydroxy-4-methylcyclohexyl)amino)-5-(1-methyl-5-(trifluoromethyl)-1H-pyrazol-3-yl)pyridin-2-yl)amino)pyrimidin-2-yl)piperidin-4-ol], for which the pIC50 in assay [1] (setting [6]) was 9.05; in assay [1] (setting [7]) it was 9.15; in assay [2] (setting [8]), 9.10; in assay [2] (setting [9]), 9.52; in assay [3] (IC50 del19/C797S, 100 μM ATP) it was 6.60; in assay [3] (setting [10]), 6.88. Also, the pIC50 was 6.56 in assay [4] (IC50 L858R/C797S, 100 μM ATP); 7.80 in assay [4] (setting [11]); less than 5.00 in assay [5] (IC50 WT, 100 μM ATP); 6.76 in assay [5] (setting [12]).

`O=S(=O)(C1CC1)n1cc(-c2nccc(Nc3cc(NC4CCN(CCF)CC4)c(-c4ccn(C(F)F)n4)cn3)n2)cn1` [Example 217, N^2-(2-(1-(Cyclopropylsulfonyl)-1H-pyrazol-4-yl)pyrimidin-4-yl)-5-(1-(difluoromethyl)-1H-pyrazol-3-yl)-N^4-(1-(2-fluoroethyl)piperidin-4-yl)pyridine-2,4-diamine]: the IC50 in assay [1] (setting [13]) turned out to be 0.2 nM; in assay [2] (setting [14]), 0.4 nM; in assay [3] (setting [15]) it was 28.7 nM; in assay [4] (setting [16]), 23.7 nM; in assay [5] (setting [17]) it was 454 nM.

`O=S(=O)(C1CC1)n1cc(-c2nccc(Nc3cc(N[C@H]4CC[C@H](CO)CC4)c(-c4ccn(C(F)F)n4)cn3)n2)cn1` [Example 198, ((1r,4r)-4-((2-((2-(1-(Cyclopropylsulfonyl)-1H-pyrazol-4-yl)pyrimidin-4-yl)amino)-5-(1-(difluoromethyl)-1H-pyrazol-3-yl)pyridin-4-yl)amino)cyclohexyl)methanol]: the IC50 in assay [1] (setting [18]) was determined as 0.3 nM; in assay [2] (setting [19]), 3.3 nM; in assay [2] (setting [14]), 0.1 nM; in assay [3] (setting [20]), 2.2 nM; in assay [3] (setting [15]) it was 0.7 nM; in assay [4] (setting [21]), 3040 nM. Besides, the values for the IC50 in assay [4] (setting [16]), in assay [5] (setting [22]) and in assay [5] (setting [17]) were 4.2 nM, more than 10000 nM and 84.7 nM, respectively.

In the case of `O=S(=O)(C1CC1)n1cc(-c2nccc(Nc3cc(N[C@H]4CC[C@@H](CN5CCC5)CC4)c(-c4ccn(CC(F)F)n4)cn3)n2)cn1` [Example 247, N^4-((1s,4s)-4-(Azetidin-1-ylmethyl)cyclohexyl)-N^2-(2-(1-(cyclopropylsulfonyl)-1H-pyrazol-4-yl)pyrimidin-4-yl)-5-(1-(2,2-difluoroethyl)-1H-pyrazol-3-yl)pyridine-2,4-diamine], the IC50 in assay [1] (setting [18]) was 0.2 nM; in assay [1] (setting [13]), 0.3 nM; in assay [2] (setting [19]), 0.1 nM; in assay [2] (setting [14]), 0.1 nM; in assay [3] (setting [20]), 0.3 nM; in assay [3] (setting [15]), 0.2 nM. For the same compound, the IC50 in assay [4] (setting [21]) was found to be 0.7 nM; in assay [4] (setting [16]) it was 0.2 nM; in assay [5] (setting [22]), 150 nM; in assay [5] (setting [17]), 0.7 nM.

As to `O=S(=O)(C1CC1)n1cc(-c2nccc(Nc3cc(NC4CCCCC4O)c(-c4ccn(C(F)F)n4)cn3)n2)cn1` (stereo not shown) [Example 28, 2-((2-((2-(1-(Cyclopropylsulfonyl)-1H-pyrazol-4-yl)pyrimidin-4-yl)amino)-5-(1-(difluoromethyl)-1H-pyrazol-3-yl)pyridin-4-yl)amino)cyclohexan-1-ol], the IC50 in assay [1] (setting [18]) is 1.1 nM; in assay [1] (setting [13]) it was 0.9 nM; in assay [2] (setting [19]) it was 5.5 nM; in assay [2] (setting [14]) it was 0.8 nM; in assay [3] (setting [20]), 62.7 nM; in assay [3] (setting [15]) it was 95.7 nM. Moreover, the IC50 in assay [4] (setting [21]) was 598 nM; in assay [4] (setting [16]), 21.8 nM; in assay [5] (setting [22]), more than 10000 nM; in assay [5] (setting [17]), 241 nM.

With `CN(C)C(=O)[C@H]1CC[C@@H](Nc2cc(Nc3ccnc(-c4cnn(S(=O)(=O)C5CC5)c4)n3)ncc2-c2ccn(C)n2)CC1` [Example 232, (1s,4s)-4-((2-((2-(1-(Cyclopropylsulfonyl)-1H-pyrazol-4-yl)pyrimidin-4-yl)amino)-5-(1-methyl-1H-pyrazol-3-yl)pyridin-4-yl)amino)-N,N-dimethylcyclohexane-1-carboxamide], the IC50 in assay [1] (setting [18]) came to 0.4 nM; in assay [1] (setting [13]), 0.6 nM; in assay [2] (setting [19]), 0.4 nM; in assay [2] (setting [14]) it was 0.3 nM; in assay [3] (setting [20]), 1.1 nM; in assay [3] (setting [15]) it was 0.5 nM. The IC50 in assay [4] (setting [21]) was 1.6 nM; in assay [4] (setting [16]), 0.4 nM; in assay [5] (setting [22]), 247 nM.

As to `Cc1cc(-c2cnc(Nc3ccnc(-c4cnn(S(=O)(=O)C5CC5)c4)n3)cc2N[C@H]2CC[C@@H](C(C)(C)O)CC2)nn1C` [Example 281, 2-((1s,4s)-4-((2-((2-(1-(Cyclopropylsulfonyl)-1H-pyrazol-4-yl)pyrimidin-4-yl)amino)-5-(1,5-dimethyl-1H-pyrazol-3-yl)pyridin-4-yl)amino)cyclohexyl)propan-2-ol], the IC50 in assay [1] (setting [18]) was determined as 2.8 nM; in assay [1] (setting [13]), 1.8 nM; in assay [2] (setting [19]), 2.3 nM; in assay [2] (setting [14]) it was 0.6 nM; in assay [3] (setting [20]), 1.1 nM; in assay [3] (setting [15]), 0.9 nM. Further, the IC50 came out at 40.4 nM in assay [4] (setting [21]), 2.8 nM in assay [4] (setting [16]), 806 nM in assay [5] (setting [22]) and 2.9 nM in assay [5] (setting [17]).

For the compound `CC1(O)CCC(Nc2cc(Nc3ccnc(N4CC(CO)C(F)(F)C4)n3)ncc2-c2ccn(C(F)F)n2)CC1` (stereo not shown) [Example 346, (1s,4s)-4-((2-((2-(3,3-Difluoro-4-(hydroxymethyl)pyrrolidin-1-yl)pyrimidin-4-yl)amino)-5-(1-(difluoromethyl)-1H-pyrazol-3-yl)pyridin-4-yl)amino)-1-methylcyclohexan-1-ol], the pIC50 in assay [1] (setting [6]) was 8.20; in assay [2] (setting [8]), 8.43; in assay [3] (IC50 del19/C797S, 100 μM ATP), 6.91; in assay [4] (IC50 L858R/C797S, 100 μM ATP) it was 6.39; in assay [5] (IC50 WT, 100 μM ATP) it was less than 5.00; in assay [5] (setting [12]) it was 6.48.

For `CO[C@H]1CCN(c2nccc(Nc3cc(N[C@H]4CC[C@@](C)(O)CC4)c(-c4ccn(C(F)F)n4)cn3)n2)C[C@H]1F` [Example 111, (1s,4s)-4-((5-(1-(Difluoromethyl)-1H-pyrazol-3-yl)-2-((2-((3R,4S)-3-fluoro-4-methoxypiperidin-1-yl)pyrimidin-4-yl)amino)pyridin-4-yl)amino)-1-methylcyclohexan-1-ol], the IC50 in assay [1] (setting [18]) was 1.6 nM; in assay [1] (setting [13]) it was 1.4 nM; in assay [2] (setting [19]), 0.2 nM; in assay [2] (setting [14]), 0.1 nM; in assay [3] (setting [20]), 253 nM; in assay [3] (setting [15]), 86.8 nM. The IC50 in assay [4] (setting [21]) was 67.2 nM; in assay [4] (setting [16]), 19.7 nM; in assay [5] (setting [22]), more than 10000 nM; in assay [5] (setting [17]), 53.7 nM.

As to `Cn1nc(-c2cnc(Nc3ccnc(-c4cnn(S(=O)(=O)C5CC5)c4)c3)nc2N[C@H]2CC[C@@](C)(O)CC2)cc1C(F)(F)F` [Example 356, (1s,4s)-4-((2-((2-(1-(Cyclopropylsulfonyl)-1H-pyrazol-4-yl)pyridin-4-yl)amino)-5-(1-methyl-5-(trifluoromethyl)-1H-pyrazol-3-yl)pyrimidin-4-yl)amino)-1-methylcyclohexan-1-ol], the pIC50 in assay [1] (setting [7]) was 8.96; in assay [2] (setting [9]), 8.74; in assay [3] (setting [10]) it was 8.01; in assay [4] (setting [11]), 7.92; in assay [5] (setting [12]), 7.02.

For `O=S(=O)(C1CC1)n1cc(-c2nccc(Nc3cc(NC[C@H]4C[C@H](O)C4)c(-c4ccn(C(F)F)n4)cn3)n2)cn1` [Example 34, (1r,3r)-3-(((2-((2-(1-(Cyclopropylsulfonyl)-1H-pyrazol-4-yl)pyrimidin-4-yl)amino)-5-(1-(difluoromethyl)-1H-pyrazol-3-yl)pyridin-4-yl)amino)methyl)cyclobutan-1-ol], the IC50 in assay [1] (setting [18]) came out at 0.9 nM; in assay [1] (setting [13]) it was 0.4 nM; in assay [2] (setting [19]) it was 1.6 nM; in assay [2] (setting [14]), 0.2 nM; in assay [3] (setting [20]) it was 4.2 nM; in assay [3] (setting [15]), 1.9 nM. Also, the IC50 in assay [4] (setting [21]) was 53.3 nM; in assay [4] (setting [16]), 2 nM; in assay [5] (setting [22]), more than 10000 nM; in assay [5] (setting [17]), 19.4 nM.
